Activity data for two compounds are collected here from ChEMBL document CHEMBL2073969, “Increased renal expression of bilirubin glucuronide transporters in a rat model of obstructive jaundice” (Am J Physiol Gastrointest Liver Physiol, 2002).

The target in the data set is ATP-binding cassette sub-family C member 2 (Homo sapiens, UniProt Q92887). Put plainly: TP_TRANSPORTER: RT-PCR in renal proximal tubular epithelial cells. It counts as functional, tissue-based, Kidney. The note with it: epithelial cell.
ATP-binding cassette sub-family C member 2, sequence (Q92887 whole entry): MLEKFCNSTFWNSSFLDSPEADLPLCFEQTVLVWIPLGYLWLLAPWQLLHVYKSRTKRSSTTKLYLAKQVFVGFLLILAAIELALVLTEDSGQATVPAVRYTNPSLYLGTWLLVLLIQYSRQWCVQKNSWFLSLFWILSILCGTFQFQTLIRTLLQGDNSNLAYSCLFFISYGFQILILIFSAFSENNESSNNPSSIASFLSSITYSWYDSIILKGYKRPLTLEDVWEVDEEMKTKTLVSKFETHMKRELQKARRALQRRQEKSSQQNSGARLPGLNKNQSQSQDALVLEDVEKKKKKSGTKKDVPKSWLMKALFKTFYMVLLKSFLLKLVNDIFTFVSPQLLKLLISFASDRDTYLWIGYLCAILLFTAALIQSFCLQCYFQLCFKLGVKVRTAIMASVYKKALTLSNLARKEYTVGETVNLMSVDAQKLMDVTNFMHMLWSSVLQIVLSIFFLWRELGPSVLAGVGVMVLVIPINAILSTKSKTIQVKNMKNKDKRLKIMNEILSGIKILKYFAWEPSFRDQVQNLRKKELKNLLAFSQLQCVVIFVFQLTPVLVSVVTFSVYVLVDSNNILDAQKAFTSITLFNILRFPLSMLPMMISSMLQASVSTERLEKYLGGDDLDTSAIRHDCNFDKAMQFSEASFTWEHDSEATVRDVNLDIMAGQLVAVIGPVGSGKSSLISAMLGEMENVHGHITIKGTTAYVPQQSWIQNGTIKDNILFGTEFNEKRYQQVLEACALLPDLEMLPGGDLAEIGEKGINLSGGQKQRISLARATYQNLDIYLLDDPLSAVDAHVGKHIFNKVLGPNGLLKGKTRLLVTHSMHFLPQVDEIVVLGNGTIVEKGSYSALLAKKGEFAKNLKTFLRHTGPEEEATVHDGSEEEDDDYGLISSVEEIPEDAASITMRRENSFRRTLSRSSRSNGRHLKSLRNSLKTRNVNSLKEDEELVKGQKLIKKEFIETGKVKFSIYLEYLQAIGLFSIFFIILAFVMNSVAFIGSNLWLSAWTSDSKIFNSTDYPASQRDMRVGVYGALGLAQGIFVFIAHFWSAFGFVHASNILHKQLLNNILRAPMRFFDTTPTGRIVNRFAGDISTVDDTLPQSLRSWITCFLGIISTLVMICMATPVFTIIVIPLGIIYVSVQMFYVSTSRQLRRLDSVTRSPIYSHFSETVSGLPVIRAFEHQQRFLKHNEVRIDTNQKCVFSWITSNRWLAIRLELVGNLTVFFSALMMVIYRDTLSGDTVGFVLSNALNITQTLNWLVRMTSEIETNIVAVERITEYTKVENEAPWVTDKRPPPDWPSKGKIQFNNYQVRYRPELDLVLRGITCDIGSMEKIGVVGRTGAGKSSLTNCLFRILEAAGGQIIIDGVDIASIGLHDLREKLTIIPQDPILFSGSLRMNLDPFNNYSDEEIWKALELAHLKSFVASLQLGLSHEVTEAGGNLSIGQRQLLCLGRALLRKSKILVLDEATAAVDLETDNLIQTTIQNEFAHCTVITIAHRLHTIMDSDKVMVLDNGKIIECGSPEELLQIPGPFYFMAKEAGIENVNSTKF

Molecules are shown by their SMILES.

Regarding `C=CC1=C(C)/C(=C/c2[nH]c(Cc3[nH]c(/C=C4\NC(=O)C(C)=C4C=C)c(C)c3CCC(=O)NCCS(=O)(=O)O)c(CCC(=O)NCCS(=O)(=O)O)c2C)NC1=O` [BILIRUBIN DITAURATE], the Activity entry is “inducer [+]”.

Take `C[C@H](CCC(=O)NCCS(=O)(=O)O)[C@H]1CC[C@H]2[C@@H]3CC[C@@H]4C[C@H](O)CC[C@]4(C)[C@H]3CC[C@]12C` [TAUROLITHOCHOLIC ACID]: the Activity entry is “inducer [+]”.
